Source: the OligoGym collection
Oligonucleotides are given in HELM: sugar(base)linkage, 5' to 3'; d 2'-deoxyribose, r ribose, m 2'-O-methylribose, p phosphate. ss, as = sense and antisense strand

These substances were tested against TMEM63B (assay: reporter assay of Huesken 2005). Conditions: siRNA.
Further: test concentration or dose not given here.

Substance	normalised inhibition (eCFP-eYFP dual reporter) [%]
RNA1{r(A)p.r(U)p.r(G)p.r(G)p.r(A)p.r(A)p.r(U)p.r(C)p.r(U)p.r(C)p.r(C)p.r(A)p.r(A)p.r(A)p.r(U)p.r(A)p.r(U)p.r(G)p.r(C)p.d(T)p.d(T)}|RNA2{r(G)p.r(C)p.r(A)p.r(U)p.r(A)p.r(U)p.r(U)p.r(U)p.r(G)p.r(G)p.r(A)p.r(G)p.r(A)p.r(U)p.r(U)p.r(C)p.r(C)p.r(A)p.r(U)p.d(T)p.d(G)}$$$RNA1{StrandType:ss}|RNA2{StrandType:as}$	78.7
RNA1{r(A)p.r(U)p.r(U)p.r(U)p.r(U)p.r(G)p.r(A)p.r(G)p.r(G)p.r(A)p.r(A)p.r(G)p.r(C)p.r(C)p.r(U)p.r(A)p.r(C)p.r(C)p.r(C)p.d(T)p.d(T)}|RNA2{r(G)p.r(G)p.r(G)p.r(U)p.r(A)p.r(G)p.r(G)p.r(C)p.r(U)p.r(U)p.r(C)p.r(C)p.r(U)p.r(C)p.r(A)p.r(A)p.r(A)p.r(A)p.r(U)p.d(G)p.d(C)}$$$RNA1{StrandType:ss}|RNA2{StrandType:as}$	27.8
RNA1{r(C)p.r(A)p.r(C)p.r(C)p.r(A)p.r(C)p.r(U)p.r(C)p.r(C)p.r(A)p.r(G)p.r(C)p.r(C)p.r(A)p.r(U)p.r(C)p.r(A)p.r(U)p.r(C)p.d(T)p.d(T)}|RNA2{r(G)p.r(A)p.r(U)p.r(G)p.r(A)p.r(U)p.r(G)p.r(G)p.r(C)p.r(U)p.r(G)p.r(G)p.r(A)p.r(G)p.r(U)p.r(G)p.r(G)p.r(U)p.r(G)p.d(A)p.d(G)}$$$RNA1{StrandType:ss}|RNA2{StrandType:as}$	70.2
RNA1{r(C)p.r(A)p.r(C)p.r(C)p.r(C)p.r(A)p.r(G)p.r(U)p.r(U)p.r(C)p.r(U)p.r(U)p.r(C)p.r(C)p.r(C)p.r(C)p.r(A)p.r(C)p.r(C)p.d(T)p.d(T)}|RNA2{r(G)p.r(G)p.r(U)p.r(G)p.r(G)p.r(G)p.r(G)p.r(A)p.r(A)p.r(G)p.r(A)p.r(A)p.r(C)p.r(U)p.r(G)p.r(G)p.r(G)p.r(U)p.r(G)p.d(A)p.d(T)}$$$RNA1{StrandType:ss}|RNA2{StrandType:as}$	56.1
RNA1{r(C)p.r(A)p.r(C)p.r(U)p.r(U)p.r(C)p.r(A)p.r(A)p.r(A)p.r(U)p.r(A)p.r(C)p.r(C)p.r(U)p.r(C)p.r(A)p.r(G)p.r(U)p.r(G)p.d(T)p.d(T)}|RNA2{r(C)p.r(A)p.r(C)p.r(U)p.r(G)p.r(A)p.r(G)p.r(G)p.r(U)p.r(A)p.r(U)p.r(U)p.r(U)p.r(G)p.r(A)p.r(A)p.r(G)p.r(U)p.r(G)p.d(T)p.d(C)}$$$RNA1{StrandType:ss}|RNA2{StrandType:as}$	55
RNA1{r(C)p.r(A)p.r(G)p.r(C)p.r(C)p.r(A)p.r(U)p.r(C)p.r(A)p.r(U)p.r(C)p.r(A)p.r(U)p.r(C)p.r(A)p.r(C)p.r(C)p.r(A)p.r(C)p.d(T)p.d(T)}|RNA2{r(G)p.r(U)p.r(G)p.r(G)p.r(U)p.r(G)p.r(A)p.r(U)p.r(G)p.r(A)p.r(U)p.r(G)p.r(A)p.r(U)p.r(G)p.r(G)p.r(C)p.r(U)p.r(G)p.d(G)p.d(A)}$$$RNA1{StrandType:ss}|RNA2{StrandType:as}$	74.3
RNA1{r(C)p.r(A)p.r(G)p.r(C)p.r(U)p.r(C)p.r(C)p.r(G)p.r(U)p.r(U)p.r(G)p.r(A)p.r(C)p.r(U)p.r(U)p.r(U)p.r(G)p.r(A)p.r(C)p.d(T)p.d(T)}|RNA2{r(G)p.r(U)p.r(C)p.r(A)p.r(A)p.r(A)p.r(G)p.r(U)p.r(C)p.r(A)p.r(A)p.r(C)p.r(G)p.r(G)p.r(A)p.r(G)p.r(C)p.r(U)p.r(G)p.d(G)p.d(A)}$$$RNA1{StrandType:ss}|RNA2{StrandType:as}$	84.4
RNA1{r(C)p.r(A)p.r(G)p.r(G)p.r(A)p.r(C)p.r(A)p.r(A)p.r(C)p.r(C)p.r(A)p.r(U)p.r(G)p.r(C)p.r(A)p.r(C)p.r(A)p.r(A)p.r(G)p.d(T)p.d(T)}|RNA2{r(C)p.r(U)p.r(U)p.r(G)p.r(U)p.r(G)p.r(C)p.r(A)p.r(U)p.r(G)p.r(G)p.r(U)p.r(U)p.r(G)p.r(U)p.r(C)p.r(C)p.r(U)p.r(G)p.d(T)p.d(T)}$$$RNA1{StrandType:ss}|RNA2{StrandType:as}$	61.5
RNA1{r(C)p.r(A)p.r(G)p.r(G)p.r(C)p.r(C)p.r(U)p.r(G)p.r(C)p.r(U)p.r(C)p.r(A)p.r(U)p.r(G)p.r(U)p.r(A)p.r(C)p.r(A)p.r(U)p.d(T)p.d(T)}|RNA2{r(A)p.r(U)p.r(G)p.r(U)p.r(A)p.r(C)p.r(A)p.r(U)p.r(G)p.r(A)p.r(G)p.r(C)p.r(A)p.r(G)p.r(G)p.r(C)p.r(C)p.r(U)p.r(G)p.d(G)p.d(G)}$$$RNA1{StrandType:ss}|RNA2{StrandType:as}$	72.1
RNA1{r(C)p.r(A)p.r(U)p.r(C)p.r(C)p.r(C)p.r(A)p.r(A)p.r(G)p.r(A)p.r(U)p.r(G)p.r(A)p.r(G)p.r(G)p.r(A)p.r(G)p.r(U)p.r(U)p.d(T)p.d(T)}|RNA2{r(A)p.r(A)p.r(C)p.r(U)p.r(C)p.r(C)p.r(U)p.r(C)p.r(A)p.r(U)p.r(C)p.r(U)p.r(U)p.r(G)p.r(G)p.r(G)p.r(A)p.r(U)p.r(G)p.d(A)p.d(G)}$$$RNA1{StrandType:ss}|RNA2{StrandType:as}$	53
RNA1{r(C)p.r(A)p.r(U)p.r(C)p.r(U)p.r(G)p.r(G)p.r(U)p.r(G)p.r(G)p.r(C)p.r(U)p.r(G)p.r(C)p.r(G)p.r(C)p.r(U)p.r(G)p.r(C)p.d(T)p.d(T)}|RNA2{r(G)p.r(C)p.r(A)p.r(G)p.r(C)p.r(G)p.r(C)p.r(A)p.r(G)p.r(C)p.r(C)p.r(A)p.r(C)p.r(C)p.r(A)p.r(G)p.r(A)p.r(U)p.r(G)p.d(A)p.d(A)}$$$RNA1{StrandType:ss}|RNA2{StrandType:as}$	29.3
RNA1{r(C)p.r(A)p.r(U)p.r(G)p.r(A)p.r(C)p.r(C)p.r(U)p.r(A)p.r(C)p.r(A)p.r(G)p.r(U)p.r(A)p.r(U)p.r(C)p.r(A)p.r(C)p.r(C)p.d(T)p.d(T)}|RNA2{r(G)p.r(G)p.r(U)p.r(G)p.r(A)p.r(U)p.r(A)p.r(C)p.r(U)p.r(G)p.r(U)p.r(A)p.r(G)p.r(G)p.r(U)p.r(C)p.r(A)p.r(U)p.r(G)p.d(A)p.d(C)}$$$RNA1{StrandType:ss}|RNA2{StrandType:as}$	58.9
RNA1{r(C)p.r(C)p.r(A)p.r(C)p.r(U)p.r(C)p.r(C)p.r(A)p.r(G)p.r(C)p.r(C)p.r(A)p.r(U)p.r(C)p.r(A)p.r(U)p.r(C)p.r(A)p.r(U)p.d(T)p.d(T)}|RNA2{r(A)p.r(U)p.r(G)p.r(A)p.r(U)p.r(G)p.r(A)p.r(U)p.r(G)p.r(G)p.r(C)p.r(U)p.r(G)p.r(G)p.r(A)p.r(G)p.r(U)p.r(G)p.r(G)p.d(T)p.d(G)}$$$RNA1{StrandType:ss}|RNA2{StrandType:as}$	77.4
RNA1{r(C)p.r(C)p.r(A)p.r(U)p.r(C)p.r(C)p.r(U)p.r(C)p.r(U)p.r(G)p.r(C)p.r(C)p.r(U)p.r(C)p.r(U)p.r(U)p.r(C)p.r(U)p.r(G)p.d(T)p.d(T)}|RNA2{r(C)p.r(A)p.r(G)p.r(A)p.r(A)p.r(G)p.r(A)p.r(G)p.r(G)p.r(C)p.r(A)p.r(G)p.r(A)p.r(G)p.r(G)p.r(A)p.r(U)p.r(G)p.r(G)p.d(G)p.d(C)}$$$RNA1{StrandType:ss}|RNA2{StrandType:as}$	53.2
